# In patent publication US20240093259A1, “METHODS TO STABILIZE MAMMALIAN CELLS” (THE REGENTS OF THE UNIVERSITY OF CALIFORNIA, priority 2019, published 2024):
# Key:
# Type in all cases: cell-based, Chinese hamster
# CHO-K1 cells [1] = test: EJ5-GFP double-strand break (DSB) reporter flow cytometry assay in CHO-K1
# From the text: FIGS. 2A-2B show GFP-based double-strand break (DSB) reporter system. […] The spacer prevents the promoter from driving GFP expression. Step 2: Transient transfection with the DSB-inducing plasmid (B) induces two DSBs at the 5′ and 3′ ends of the spacer. Successfully transfected cells are identified through far-red fluorescence from miRFP670, fused to Cas9 (B). Step 3: Transfected cells that repair both DSBs properly keep the spacer in place and thus remain GFP-negative. Transfected cells that fail to repair both DSBs in time produce a large sequence loss, moving the GFP in proximity to the promoter, resulting in GFP expression. Thus, the fraction of GFP-positive cells among all transfected cells (far-red positive) serves as a read-out for the inefficiency of DSB repair. […]
# The invention provides a tool to quantify double-strand break (DSB) repair in CHO. […] This reporter system comprises a GFP reading frame, separated from its promoter with a large (2 kb) spacer (FIG. 2A). […] Thus, this tool allows quantitative detection of DSB repair efficiency in living cells and is a powerful read-out for how restoration of individual DSB repair genes improves chromosome stability.
# The EJ5-GFP reporter plasmid (addgene #44026) was linearized with XhoI and transfected into CHO-K1 and CHO-SEAP using electroporation (Neon, Thermo Fisher). […] Impaired DSB repair is detected by positive GFP expression. […]
# CHO-K1 cells [2] = test: Karyotype analysis after long-term culture (multi-color FISH chromosome painting); conditions: wild-type CHO-K1 cultured under permanent supplementation, 60 passages
# Protocol: Metaphase spreads were prepared as previously described. Samples were labeled with multi-color DNA fluorescence in situ hybridization (FISH) probes (12× CHamster mFISH probe kit, MetaSystems) for spectral karyotyping as previously described. For karyotypic analyses, the most abundant karyotype across samples was defined as the representative (“main”) karyotype, and deviations from this karyotype were scored as a numerical alteration (whole-chromosomal aneuploidy) and/or structural alteration (inter-chromosomal rearrangement, visible deletion). Structurally aberrant karyotypes (FIG. 8b) were defined as karyotypes showing at least one structural deviation from the representative karyotype. Since unrepaired DSBs can lead to chromosomal aberrations, as mentioned above, we prepared karyotype samples of wildtype and engineered cell lines to analyze chromosomal aberrations on the single cell level. For this, both ATM+ and ATM+ PRKDC+ cell lines were cultured in parallel to the parental wildtype clone for a total of 60 passages (approx. 120 doublings) after which cells were arrested in mitosis, metaphase chromosomal spreads were prepared and stained with chromosome-specific probes (“chromosome painting”) to detect structural and numerical variations. […]
# CHO-SEAP cells = test: Long-term culture SEAP titer (SEAP reporter assay); conditions: CHO-SEAP cells under constant 5 μM MTX supplementation, 48 passages
# Protocol: Cells were cultured in triplicates on 6-well plates. All cells were treated with 5 μM methotrexate (MTX) (MilliporeSigma) for 2 weeks at the beginning of the study (P0-P7) after which only one triplicate per genotype was continued under MTX until the rest of the study. Cells were cultured for 48 passages in total, with 3 passages/week. […]. Protein titer was measured at P0, P7, and P48 using a SEAP reporter assay (Applied Biosystems, ThermoFisher).
# To finally investigate whether DNA-repair optimization has beneficial effects on transgene expression, we grew CHO-SEAP WT and CHO-SEAP CMV::XRCC6 alongside in a long-term culture experiment, and compared SEAP titer at the beginning and the end. Prior to the start of the experiment, cells were cultured in 5 uM methotrexate (MTX) for 1 week to select for high SEAP expression, after which MTX was taken off the growth medium in half of the samples (FIG. 9c). MTX is a competitive inhibitor of dihydrofolate reductase, an essential metabolic enzyme, which is co-expressed with the transgenic SEAP locus (FIG. 9b).
Structure (SMILES),"fraction of GFP+ cells (inefficiency of DSB repair) (CHO-K1 cells [1]; CHO-K1 carrying GFP reporter, DSB-inducer transfection, ATM inhibitor 3 μM, FACS 24h after transfection)","GFP+ positive cells (compromised DSB repair) (CHO-K1 cells [1]; CHO-K1 wildtype carrying EJ5-GFP, DSB-inducing plasmid, vs DMSO (Example 2, FIG. 5c))",structural abnormalities in karyotype (CHO-K1 cells [2]),SEAP titer at end of long-term culture (CHO-SEAP cells)
C[C@@H]1CN(CC(=O)Nc2ccc3c(c2)Cc2cccc(-c4cc(=O)cc(N5CCOCC5)o4)c2S3)C[C@H](C)O1 [KU-60019],increases the fraction of GFP+ cells,significant increase in GFP+ positive cells,massive increase in structural abnormalities,
"CN(Cc1cnc2nc(N)nc(N)c2n1)c1ccc(C(=O)N[C@@H](CCC(=O)O)C(=O)O)cc1 [MTX, methotrexate]",,,,no reduction in SEAP titer
